Data published in patent EP4785943A1, “SOLID DISPERSION, PHARMACEUTICAL COMPOSITION, AND PREPARATION METHOD AND USE THEREFOR” (4B Technologies (Beijing) Co., Limited, priority 2023, dated 2025).
Converted amounts (≈) assume the structure as drawn. Where two headings read alike, the source gives them in different places.

Experiment: Solubility testing in FaSSIF, FeSSIF and SGF (37°C, HPLC of filtrate)
Format: physicochemical
Conditions: for pH after 2 h: pH of the 2-hour filtrate; for solubility at 0.5 h / solubility at 2 h: thermodynamic from solid, 37°C; for solubility at 0.5 h: read-out: Solubility (mg/mL) 0.5 h; for solubility at 2 h: read-out: Solubility (mg/mL) 2 h
Description: Preparation of FaSSIF stock solution with pH buffer: Approximately 621 mg of NaCl, approximately 345 mg of NaH2PO4, and approximately 41.9 mg of NaOH are weighed into a 100 mL volumetric flask, and dissolved in water to approximately 5 cm below the mark. After cooling and pH adjustment, the resulting mixture is diluted to volume with water, and mixed thoroughly with shaking.
FeSSIF stock solution: Approximately 866 mg of glacial acetic acid, approximately 406 mg of NaOH, and approximately 1184 mg of NaCl are weighed into a 100 mL volumetric flask, and dissolved in water to approximately 5 cm below the mark. After cooling and pH adjustment, the resulting mixture is diluted to volume with water, and mixed thoroughly with shaking.
SGF solution: Approximately 202 mg of NaCl and approximately 321 mg of pepsin are weighed into a 100 mL volumetric flask, followed by addition of 700 µL of HCl, and dissolved in water to approximately 5 cm below the mark. After cooling, the resulting mixture is diluted to volume with water, and mixed thoroughly with shaking.
(§1) FaSSIF solution: FaSSIF stock solution is transferred to a 100 mL volumetric flask, followed by addition of approximately 225 mg of FaSSIF powder, and dissolved in FaSSIF stock solution to approximately 5 cm below the mark. After cooling, the resulting mixture is diluted to volume with FaSSIF stock solution, mixed thoroughly with shaking, and allowed to stand for 2 hours before use.
as §1, with “FeSSIF” for “FaSSIF”, “1122” for “225”, “solution, and” for “solution,”, “shaking.” for “shaking, and allowed to stand for 2 hours before use.”
Approximately 20 mg of sample is weighed into a 4 mL vial, followed by addition of 4 mL of different solvents (FaSSIF, FeSSIF, SGF). After the vial is equipped with a magnetic stir bar, the mixture is stirred at 37°C for 2 hours, during which samples are taken at 0.5 hours and 2 hours. After filtration, the sample concentration in the filtrate is determined by HPLC. The pH of the 2-hour filtrate and the crystal form of the remaining solid are also measured.

solubility in aqueous media (background statement): poorly soluble | pH after 2 h (FaSSIF): 6.58 | pH after 2 h (FeSSIF): 5.02 | pH after 2 h (SGF): 1.28 | solubility at 0.5 h (simulated gastric fluid, SGF): 0.699 mg/mL (≈ 1450 µM) | solubility at 2 h (simulated gastric fluid, SGF): 0.524 mg/mL (≈ 1090 µM) | solubility at 0.5 h (FaSSIF): 0.00026 mg/mL (≈ 0.539 µM) | solubility at 2 h (FaSSIF): 0.00026 mg/mL (≈ 0.539 µM) | solubility at 0.5 h (FeSSIF): 0.00313 mg/mL (≈ 6.49 µM) | solubility at 2 h (FeSSIF): 0.00293 mg/mL (≈ 6.07 µM)
SMILES: COc1cc(Nc2ccc3ncc(N4CCOCC4)nc3c2C#N)ccc1OCc1ccc(C)nc1 [Compound 1, 6-((3-methoxy-4-((6-methylpyridin-3-yl)methoxy)phenyl)amino)-3-morpholinoquinoxaline-5-carbonitrile]
